Data reported in article PMC11123979, “Discovery of Nine Dipeptidyl Peptidase-4 Inhibitors from Coptis chinensis Using Virtual Screening, Bioactivity Evaluation, and Binding Studies” (Molecules, 2024).
Where two headings read alike, the source gives them in different places.

Key:
DPP-4 [1] = molecular target: T1, DPP-4 (Homo sapiens, UniProt P27487); assay: DPP-4 inhibition assay (commercial DPP-4 inhibitor screening assay kit, fluorescence); type: biochemical; conditions: for IC50: dose-response curves, read-out: IC50 value of the DPP-4 inhibitory activity; for inhibition at 30 µM: read-out: DPP-4 inhibition (primary screening)
T1 construct: purchased Cayman Chemical Company 700210
T1 sequence (P27487 whole entry): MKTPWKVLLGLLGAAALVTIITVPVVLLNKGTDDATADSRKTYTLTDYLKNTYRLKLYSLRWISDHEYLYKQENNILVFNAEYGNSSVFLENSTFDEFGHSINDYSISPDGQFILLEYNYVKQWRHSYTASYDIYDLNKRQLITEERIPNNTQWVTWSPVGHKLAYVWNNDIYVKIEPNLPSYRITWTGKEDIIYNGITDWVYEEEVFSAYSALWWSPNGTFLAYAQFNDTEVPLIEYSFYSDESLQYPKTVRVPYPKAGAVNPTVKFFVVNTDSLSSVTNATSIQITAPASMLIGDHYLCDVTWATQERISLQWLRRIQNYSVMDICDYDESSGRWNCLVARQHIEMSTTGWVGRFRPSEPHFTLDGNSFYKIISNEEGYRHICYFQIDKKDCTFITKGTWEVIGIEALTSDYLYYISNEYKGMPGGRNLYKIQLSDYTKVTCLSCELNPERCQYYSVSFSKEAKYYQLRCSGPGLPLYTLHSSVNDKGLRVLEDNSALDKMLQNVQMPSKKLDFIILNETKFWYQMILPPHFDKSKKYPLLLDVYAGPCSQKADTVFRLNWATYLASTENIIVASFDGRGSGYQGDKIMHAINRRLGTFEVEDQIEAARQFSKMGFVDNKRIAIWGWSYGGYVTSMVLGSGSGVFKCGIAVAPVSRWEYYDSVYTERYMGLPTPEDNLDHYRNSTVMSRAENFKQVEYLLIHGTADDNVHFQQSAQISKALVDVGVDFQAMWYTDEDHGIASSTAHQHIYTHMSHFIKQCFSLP
Description: The DPP-4 inhibitory activity of 39 potential compounds obtained via virtual screening was tested using a commercial DPP-4 inhibitor screening assay kit (Item No. 700210, Cayman Chemical Company, Ann Arbor, MI, USA), and the kit’s instructions were followed exactly. The fluorescence intensity was measured at an excitation/emission wavelength of 360/460 nm using an EnVision Multilabel Reader (2104 PerkinElmer, Waltham, MA, USA). The possibility of false positives was eliminated by assessing the autofluorescence of each test compound. […] These compounds were prepared at a concentration of 30 μM in deionized water that contained 0.5% DMSO. […] The half-maximal inhibitory concentration (IC50) was determined using GraphPad Prism 9 software.

DPP-4 [2] = molecular target: T1, DPP-4; assay: SPR-based binding assay (BIAcore T200, DPP-4 immobilized on CM5 chip); conditions: 'Affinity' module, 1:1, 25 °C, Tris-HCl pH 8.0
Description: The binding affinity between DPP-4 and six alkaloids in Coptis chinensis was evaluated using the BIAcore T200 system (GE Healthcare, Uppsala, Sweden). All SPR-related materials were obtained from GE Healthcare, and DPP-4 (D3446) was purchased from Sigma-Aldrich Chemical Co. (St. Louis, MO, USA). The DPP-4 protein, dissolved in PBS at a concentration of 40 ng/μL, was immobilized onto the surface of a CM5 sensor chip using a standard amine-coupling procedure. The test compounds were prepared at varying concentrations in a solution of Tris-Hcl (pH 8.0) and injected over the surface of the chip at a rate of 30 μL·min^−1 and a temperature of 25 °C. A reference flow cell without the immobilization of DPP-4 served as a control for non-specific binding. […] The chip could be regenerated and reused multiple times after it was treated with glycine–HCl (10 mM; pH 2.0). The test compounds were evaluated using the single-cycle kinetics mode across a two-fold concentration series (1.17–100 µM). The equilibrium constant (KD) was calculated based on the 1:1 reaction ratio between the molecule and protein, using the ‘affinity” module in the Biacore T200 software.

## c1c2c(cc3c1OCO3)-c1cc3ccc4c(c3c[n+]1CC2)OCO4 [coptisine]
DPP-4 [1]
  IC50: 8.91 µM
DPP-4 [1]; final concentration of 30 μM
  inhibition at 30 µM: > 40%
DPP-4 [2]
  Kd: 13.8 µM

## COc1ccc2cc3[n+](cc2c1O)CCc1cc2c(cc1-3)OCO2 [berberrubine]
DPP-4 [1]
  IC50: 27.4 µM
DPP-4 [1]; final concentration of 30 μM
  inhibition at 30 µM: > 40%
DPP-4 [2]
  Kd: 18.8 µM

## COc1cc2c(cc1OC)-c1cc3ccc4c(c3c[n+]1CC2)OCO4 [epiberberine]
DPP-4 [1]
  IC50: 35.6 µM
DPP-4 [1]; final concentration of 30 μM
  inhibition at 30 µM: > 40%

## COc1cc2c(cc1O)CC[n+]1cc3c4c(ccc3cc1-2)OCO4 [groenlandicine]
DPP-4 [1]
  IC50: 13.4 µM
DPP-4 [1]; final concentration of 30 μM
  inhibition at 30 µM: > 40%
DPP-4 [2]
  Kd: 15 µM

## COc1ccc2cc3[n+](cc2c1OC)CCc1cc2c(cc1-3)OCO2 [berberine]
DPP-4 [1]
  IC50: 53.7 µM
DPP-4 [1]; final concentration of 30 μM
  inhibition at 30 µM: > 40%
DPP-4 [2]
  Kd: 30 µM

## COc1cc2c(cc1O)CC[n+]1cc3c(OC)c(OC)ccc3cc1-2 [jatrorrhizine]
DPP-4 [1]
  IC50: 26.9 µM
  inhibition at 30 µM: > 40%
DPP-4 [2]
  Kd: 12.1 µM

## COc1cc2c(cc1OC)-c1cc3ccc(OC)c(OC)c3c[n+]1CC2 [palmatine]
DPP-4 [1]
  IC50: 49.8 µM
DPP-4 [1]; final concentration of 30 μM
  inhibition at 30 µM: > 40%

## COc1ccc2cc3[n+](cc2c1OC)CCc1cc(O)c(O)cc1-3 [demethyleneberberine]
DPP-4 [1]
  IC50: 3.63 µM
DPP-4 [1]; final concentration of 30 μM
  inhibition at 30 µM: > 40%

## COc1cc2c(cc1O)-c1cc3ccc(OC)c(OC)c3c[n+]1CC2 [columbamine]
DPP-4 [1]
  IC50: 3.44 µM
DPP-4 [1]; final concentration of 30 μM
  inhibition at 30 µM: > 40%
DPP-4 [2]
  Kd: 8.11 µM
